# Measurements published in ChEMBL document CHEMBL1154072, “An efficient steroid pharmacophore-based strategy to identify new aromatase inhibitors” (Eur J Med Chem, 2009).
# What was measured:
# [1] = target: T1, Aromatase (Homo sapiens, UniProt P11511); test: Inhibition of human placental aromatase assessed as conversion of [1-beta-3H]androstenedione to [1beta-3H]estrone after 20 mins by liquid scintillation counting
# T1 sequence (P11511 whole entry): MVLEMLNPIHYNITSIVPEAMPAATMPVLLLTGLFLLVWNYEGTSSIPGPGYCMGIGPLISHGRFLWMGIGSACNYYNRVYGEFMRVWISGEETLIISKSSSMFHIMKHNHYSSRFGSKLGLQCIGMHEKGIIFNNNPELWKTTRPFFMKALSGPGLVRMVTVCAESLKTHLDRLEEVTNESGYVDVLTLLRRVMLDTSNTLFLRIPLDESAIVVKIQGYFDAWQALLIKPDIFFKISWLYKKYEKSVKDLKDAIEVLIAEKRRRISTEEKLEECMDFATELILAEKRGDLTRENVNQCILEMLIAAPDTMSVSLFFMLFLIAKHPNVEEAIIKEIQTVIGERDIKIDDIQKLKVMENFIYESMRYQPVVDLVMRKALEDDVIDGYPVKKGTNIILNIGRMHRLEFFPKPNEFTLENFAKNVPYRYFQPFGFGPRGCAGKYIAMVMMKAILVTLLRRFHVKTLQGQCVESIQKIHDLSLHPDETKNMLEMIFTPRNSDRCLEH
# [2] = target: T1, Aromatase; test: Inhibition of human placental aromatase assessed as conversion of [1-beta-3H]androstenedione to […] at 100 uM after 20 mins by liquid scintillation counting; details: for inhibition (INH): 100 µM
# [3] = target: T1, Aromatase; test: Inactivation of human placental aromatase assessed as residual activity at 7.5 uM after 12 mins in presence of 0.5 mM L-cysteine; details: 0.2 h
# [4] = target: T1, Aromatase; test: Competitive inhibition of human placental aromatase by Lineweaver-Burke plot analysis
# [5] = target: T1, Aromatase; test: Inhibition of human placental aromatase assessed as conversion of [1-beta-3H]androstenedione to […] at 30 uM after 20 mins by liquid scintillation counting
SMILES,IC50 [1] [nM],also measured
CC1C(O)CC23COC(=O)C2=CCCC3C1(C)CCC1=CC(=O)OC1 (centres undefined),126000,
CCn1cc(C(=O)O)c(=O)c2ccc(-c3c[nH]nc3C)nc21,,inhibition (INH) [2]: Not Active
CCOC(=O)C1=C(C)C2C=C(c3cccs3)CC(c3ccc(Cl)cc3)=C2OC1=O (centres undefined),,inhibition at 100 µM [2]: 26%
Cc1nc2c(cc1C#N)C(Nc1ccc(Cl)cc1)Oc1ccc([N+](=O)[O-])cc1-2 (centres undefined),678,Activity [3]: Active; Ki [4]: 385 nM
CCCCSC(=O)[C@@]1(C)CC[C@H]2[C@@H](CC=C3C[C@@H](OC(C)=O)CC[C@@]32C)[C@@H]1CC#N,,inhibition at 30 µM [5]: 21%
C=C1C(=O)O[C@H]2C[C@@H](C)[C@@H]3CC(=O)OC[C@@]3(C)C[C@H]12,,inhibition (INH) [2]: Not Active
CC1C2=CC(=O)CCC2(C)C2CCC3(C)C(=O)CCC3C12 (centres undefined),274,Ki [4]: 266 nM
CCCC(=O)Oc1cc(OC(=O)CCC)c2c(C)cc(=O)oc2c1,176000,
C[C@]12CCC(=O)C(O)=C1CC[C@@H]1[C@@H]2CC[C@]2(C)C(=O)CC[C@@H]12 [FORMESTANE],92,
C[C@H]1C2=CC(=O)CCC(C)(O2)[C@H]2CC[C@]3(C)C(=O)CC[C@H]3[C@H]12 (some centres undefined),9800,
CC/C(=C1\C=CC(=O)S1)C(CC)c1ccc(OC(C)=O)cc1 (centres undefined),15500,
